Experimental data: the supplement of paper PMC4862054

Columns and labels:
[1] = tested on: CAL-148; experiment: normalised viability (% of control), CellTiter-Blue; higher = more viable cells (about 100 = DMSO control); conditions: 300 nM; incubation time: 72 h
Protocol: (§1)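 DSRT, CellTiter-Blue viability, 72 h incubation. Signal is normalised to DMSO and benzethonium chloride controls. Value is the normalised response at dose 6.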

[2] = tested on: CAL-51; experiment: as above; conditions: 300 nM; incubation time: 72 h
Protocol: as §1

[3] = tested on: CAL-85-1; experiment: as above; conditions: 300 nM; incubation time: 72 h
Protocol: as §1

[4] = tested on: DU-4475; experiment: as above; conditions: 300 nM; incubation time: 72 h
Protocol: as §1

[5] = tested on: HDQ-P1; experiment: as above; conditions: 300 nM; incubation time: 72 h
Protocol: as §1

[6] = tested on: MDA-MB-453; experiment: as above; conditions: 300 nM; incubation time: 72 h
Protocol: as §1

[7] = tested on: BT-474; experiment: normalised viability (% of control), CellTiter-Blue; higher = more viable cells (100 = DMSO, 0 = benzethonium chloride kill control); conditions: 1 nM; incubation time: 72 h
Protocol: (§2)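 DSRT, CellTiter-Blue viability, 72 h incubation. Signal is normalised to DMSO and benzethonium chloride controls. Value is the normalised response at dose 1.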

[8] = tested on: BT-549; experiment: as above; conditions: 1 nM; incubation time: 72 h
Protocol: as §2

[9] = tested on: CAL-120; experiment: as above; conditions: 1 nM; incubation time: 72 h
Protocol: as §2

[10] = tested on: CAL-148; experiment: as above; conditions: 1 nM; incubation time: 72 h
Protocol: as §2

[11] = tested on: CAL-51; experiment: as above; conditions: 1 nM; incubation time: 72 h
Protocol: as §2

[12] = tested on: CAL-85-1; experiment: as above; conditions: 1 nM; incubation time: 72 h
Protocol: as §2

[13] = tested on: DU-4475; experiment: as above; conditions: 1 nM; incubation time: 72 h
Protocol: as §2

[14] = tested on: HCC1143; experiment: as above; conditions: 1 nM; incubation time: 72 h
Protocol: as §2

[15] = tested on: HCC1599; experiment: as above; conditions: 1 nM; incubation time: 72 h
Protocol: as §2

[16] = tested on: HCC1937; experiment: as above; conditions: 1 nM; incubation time: 72 h
Protocol: as §2

[17] = tested on: HDQ-P1; experiment: as above; conditions: 1 nM; incubation time: 72 h
Protocol: as §2

[18] = tested on: Hs578T; experiment: as above; conditions: 1 nM; incubation time: 72 h
Protocol: as §2

[19] = tested on: MDA-MB-231; experiment: as above; conditions: 1 nM; incubation time: 72 h
Protocol: as §2

[20] = tested on: MDA-MB-436; experiment: as above; conditions: 1 nM; incubation time: 72 h
Protocol: as §2

[21] = tested on: MDA-MB-453; experiment: as above; conditions: 1 nM; incubation time: 72 h
Protocol: as §2

[22] = tested on: MDA-MB-468; experiment: as above; conditions: 1 nM; incubation time: 72 h
Protocol: as §2

[23] = tested on: MFM-223; experiment: as above; conditions: 1 nM; incubation time: 72 h
Protocol: as §2

[24] = tested on: SK-BR-3; experiment: as above; conditions: 1 nM; incubation time: 72 h
Protocol: as §2

[25] = tested on: HCC1937; experiment: drug sensitivity score (DSS), CellTox Green (DSS (AUC-based score)); higher = stronger drug effect (viability inhibition or cytotoxicity); extreme values may be limits of the assay; conditions: incubation time: 72 h
In short: (§3)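 After 72 h of incubation in 384-well plates with compound at 5 concentrations (10-fold steps, 10,000-fold range set per compound), breast cancer cell lines seeded in 20 µl suspension were read first for CellTox Green fluorescence at 485/520 nm. CellTiter-Glo luminescence was measured next, after 10 min at room temperature. Normalisation on each plate used 0.1 % DMSO and a positive kill control, and the drug sensitivity score was computed from the area under the fitted dose-response curve.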

[26] = tested on: MCF-10A; experiment: as above; conditions: incubation time: 72 h
In short: as §3

[27] = tested on: MFM-223; experiment: as above; conditions: incubation time: 72 h
In short: as §3

| SMILES | normalised viability [1] [%] | normalised viability [2] [%] | normalised viability [3] [%] | normalised viability [4] [%] | normalised viability [5] [%] | normalised viability [6] [%] | normalised viability [7] [%] | normalised viability [8] [%] | normalised viability [9] [%] | normalised viability [10] [%] | normalised viability [11] [%] | normalised viability [12] [%] | normalised viability [13] [%] | normalised viability [14] [%] | normalised viability [15] [%] | normalised viability [16] [%] | normalised viability [17] [%] | normalised viability [18] [%] | normalised viability [19] [%] | normalised viability [20] [%] | normalised viability [21] [%] | normalised viability [22] [%] | normalised viability [23] [%] | normalised viability [24] [%] | drug sensitivity score [25] | drug sensitivity score [26] | drug sensitivity score [27] |
| --- | --- | --- | --- | --- | --- | --- | --- | --- | --- | --- | --- | --- | --- | --- | --- | --- | --- | --- | --- | --- | --- | --- | --- | --- | --- | --- | --- |
| O=C(O)C(=O)O.[NH-][C@@H]1CCCC[C@H]1[NH-].[Pt+2] [Oxaliplatin] | 121 | 95.5 | 96.9 | 113 | 78.4 | 98.8 | 103 | 89 | 84.8 | 109 | 93.3 | 86.7 | 99.8 | 93 | 93 | 84 | 130 | 96.7 | 101 | 106 | 100 | 109 | 97.1 | 91 | 0 | 1.93 | 0 |
| CCCS(=O)(=O)Nc1ccc(F)c(C(=O)c2c[nH]c3ncc(-c4ccc(Cl)cc4)cc23)c1F [Vemurafenib] | 90.3 | 96.5 | 87.4 | 55.1 | 74.4 | 88.7 | 99.8 | 114 | 95.3 | 98.4 | 94.4 | 91.6 | 88 | 93.8 | 83.4 | 119 | 96.3 | 112 | 113 | 91.1 | 89.8 | 110 | 90.7 | 92.2 | 0 | 2.59 | 0 |
| Cc1ccc(-c2cc(C(F)(F)F)nn2-c2ccc(S(N)(=O)=O)cc2)cc1 [Celecoxib] | 88 | 97 | 70.2 | 96 | 72.2 | 92.5 | 76.1 | 90.7 | 78.3 | 95.4 | 91.3 | 86.8 | 89 | 90.7 | 79 | 96.7 | 114 | 111 | 117 | 104 | 97.3 | 102 | 98.5 | 75.2 | 0 | 0 | 0 |
| C[C@H]1C[C@@H]2[C@H]([C@@H](O)C[C@@]3(C)[C@H]2CC[C@]3(O)C(=O)CO)[C@@]2(C)C=CC(=O)C=C12 [Methylprednisolone] | 104 | 105 | 112 | 100 | 74.6 | 83.3 | 108 | 93 | 81.9 | 105 | 103 | 84.6 | 95.4 | 93.3 | 114 | 83.7 | 97.7 | 122 | 103 | 108 | 95.4 | 101 | 92.7 | 92.2 | 0 | 0 | 0 |
| Oc1ncc(N(CCCl)CCCl)c(O)n1 [Uracil mustard] | 89.7 | 96.4 | 93.1 | 80.8 | 94.8 | 104 | 86.6 | 101 | 82.3 | 103 | 90.7 | 88.9 | 88.3 | 95.7 | 94.5 | 101 | 110 | 109 | 99.4 | 96.3 | 99.1 | 104 | 97.4 | 97.3 | 0 | 0 | 0 |
| COc1cc2nccc(Oc3ccc(NC(=O)Nc4cc(C)on4)c(Cl)c3)c2cc1OC [Tivozanib] | 95.9 | 89.8 | 102 | 109 | 61.2 | 95.8 | 95 | 81.1 | 106 | 103 | 101 | 114 | 102 | 103 | 115 | 92.5 | 97.6 | 103 | 88 | 102 | 97.4 | 98.3 | 100 | 102 | 0 | 0 | 0 |
